PMC12606464, “Investigating NFE2L1 activators for targeted protein aggregate clearance: a follow-up study” (RSC Medicinal Chemistry, 2025)
Like-named read-outs stand apart in the source and are kept apart here.

System: NFE2L1 pathway
Experiment: 3×PSMA4-ARE-LUC dual luciferase reporter assay in HEK293 cells
Format: cell-based, human
Settings: for EC50 / fold induction at 5 µM: Homo sapiens; for EC50: HEK293; for fold induction at 5 µM: 16 h, HEK293, luminescence relative to DMSO-treated cells, read-out: NFE2L1 activation [5 μM]
Summary of the method: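 HEK293 cells carrying the 3×PSMA4-ARE luciferase reporter (with pRL-TK) were treated with compounds for 16 h, then luciferase activity was measured. Values are fold change in luminescence over DMSO-treated cells; EC50 from four-parameter logistic or bell-shaped fits with 1/Y^2 weighting.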

[1] = PSMA4-ARE-luc2P reporter, four-parameter logistic or bell-shaped model, order of models not stated, read-out: EC50 (first value)
[2] = [Agonist] vs. Response, variable slope (four parameters), weighting 1/Y^2, Fig. S1
[3] = Bell-shaped fit, X is concentration, weighting 1/Y^2, Fig. S1
[4] = Bell-shaped fit, X is concentration, weighting 1/Y^2, Fig. S1, read-out: EC50_1 (best-fit)
[5] = PSMA4-ARE-luc2P reporter, four-parameter logistic or bell-shaped model, order of models not stated, read-out: EC50

SMILES: COc1ccc(/C=C2\CC(N)C/C(=C\c3ccc(OC)c(OC)c3)C2=O)cc1OC (stereo not drawn) [RUN-81]
- EC50 [1]: 10.4 µM
- fold induction at 5 µM: 2.1
- Bottom (best-fit) [2]: 0.95
- Hillslope (best-fit) [2]: 2.70
- Span (best-fit) [2]: 18.71
- Top (best-fit) [2]: 19.66
- logEC50 (best-fit) [2]: 1.02

SMILES: COc1ccc(/C=C2\CC(NC(=O)C3CCCC3)C/C(=C\c3ccc(OC)c(OC)c3)C2=O)cc1OC (stereo not drawn) [RUN-89]
- Dip (best-fit) [3]: 19.12
- Plateau1 (best-fit) [3]: 1.124
- Plateau2 (best-fit) [3]: 5.392
- nH1 (best-fit) [3]: -4.123
- nH2 (best-fit) [3]: -7.321
- EC50 [4]: 4.89 µM
- EC50 [5]: 4.9 µM
- EC50 [1]: 3.1 µM
- fold induction at 5 µM: 11.7
- Bottom (best-fit) [2]: 1.08
- Hillslope (best-fit) [2]: 7.14
- Span (best-fit) [2]: 6.12
- Top (best-fit) [2]: 7.20
- logEC50 (best-fit) [2]: 0.49

SMILES: COc1ccc(/C=C2\CC(NC(=O)c3ccccn3)C/C(=C\c3ccc(OC)c(OC)c3)C2=O)cc1OC (stereo not drawn) [RUN-94]
- Dip (best-fit) [3]: 8.602
- Plateau1 (best-fit) [3]: -2.174
- Plateau2 (best-fit) [3]: 11.95
- nH1 (best-fit) [3]: Unstable
- nH2 (best-fit) [3]: 18.05
- EC50 [4]: 3.8 µM
- EC50 [5]: 3.8 µM
- EC50 [1]: 3.8 µM
- EC50 ([Agonist] vs. Response, variable slope (four parameters), weighting 1/Y^2, Fig. S1, read-out: EC50 (best-fit)): 3.79 µM
- fold induction at 5 µM: 19.4
- Bottom (best-fit) [2]: 1.13
- Hillslope (best-fit) [2]: 55.77
- Span (best-fit) [2]: 9.24
- Top (best-fit) [2]: 10.37
- logEC50 (best-fit) [2]: 0.58
